Results published in US7507739B2, “6-[(substituted)phenyl]triazolopyrimidines as anticancer agents” (Wyeth, priority 2003, dated 2009).
Read-outs that look alike come from different tables or passages of the source.

Legend:
COLO 205 cells = test: MTS cytotoxicity test with COLO 205 cells; format: cell-based, human; conditions: 3 days
Method in brief: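 COLO 205 human colon carcinoma cells, 1000 per well, exposed 3 days at 37° C to nine 2-fold dilutions, typical final top concentration 5 μM. MTS absorbance normalized to time-0 plate; IC50 is concentration giving colour yield midway between untreated and fully killed controls.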

KB cells = test: MTS cytotoxicity test with KB cells; format: cell-based; conditions: Homo sapiens, read-out: IC50 KB
Description: Human cancer cell lines, unless otherwise noted, are obtained from the American Type Culture Collection (Rockville, Md.). The following drug-sensitive parental cell lines, and their derived drug-resistant counterparts, are obtained from the originators as listed: (a) S1 (parental line from a subclone of human colon carcinoma line LS174T) and derived S1-M1-3.2 (herein called S1-M1) which expresses the MXR drug transporter protein, are provided by Dr. L. Greenberger, Wyeth Research (Rabindran, S. K., He, H., Singh, M., Brown, E., Collins, K. I., Annable, T., and Greenberger, L. M. Reversal of a novel multidrug resistance mechanism in human colon carcinoma cells by fumitremorgin C. Cancer Res., 58:5850-5858,1998); (b) parental HL-60 human promyelocytic leukemia line and derived HL-60/ADR, which expresses the MRP1 drug transporter protein, are provided by Dr. M. Center, University of Kansas (McGrath, T., and Center, M. S. Adriamycin resistance in HL60 cells in the absence of detectable P-glycoprotein. Biochem. Biophys. […] J. Biol. Chem., 261: 7762-7770,1986) via Dr. L. Greenberger, Wyeth Research.
The assay, which is sold in kit form by Promega (Madison, Wis.; CellTiter 96 AQueous Non-Radioactive Cell Proliferation Assay), is based on the conversion by viable cells, but not by dead cells, of the tetrazolium salt, MTS (3-(4,5-dimethylthiazol-2-yl)-5-(3-carboxymethoxyphenyl)-2-(4-sulphophenyl)-2H-tetrazolium, inner salt), into a water-soluble colored formazan which is detected by spectrophotometry. Compounds are tested at nine concentrations, in order to determine IC50 values. For the test procedure, cells are harvested by trypsinization (or, in the case of non-adherent cells, by simple resuspension), washed, counted and distributed to wells of 96-well flat-bottom microtiter plates at 1000 cells per well in 200 μL of medium. In addition, one row of wells on a separate plate received cells as above (“time 0” plate). All plates are incubated at 37° in humidified 5% CO2 in air for about 24 hr.
On day 2, compounds for test are diluted and added to wells. Compounds are dissolved in DMSO at 10 mg/mL. For each compound, nine serial 2-fold dilutions are prepared in DMSO. Ten μL of each dilution in DMSO is transferred to 100 μL of medium, mixed well, and then 5 μL of this dilution is transferred in quadruplicate to wells containing cells. […] Plates are returned to the incubator for three days. At the time of drug addition to the experimental plates, the MTS assay is run on the “time 0” plate. This produced the “time 0 MTS value” which is related to the number of viable cells per well at the time of drug addition.
After three days of culture with test compounds (day 5 overall), the MTS assay is done on all wells of the experimental plates. The absorbance values of the quadruplicate sample wells are averaged and divided by the average of the “time 0” values. […] The nine values for each compound are plotted against concentration, and the concentration that produced a relative color yield half way between the maximum and minimum is taken as the IC50 value.
The KB lines express different amounts of the P-glycoprotein (MDR1) membrane pump which produces resistance to the action of many cytotoxic compounds, including paclitaxel and vincristine. The parental KB line expresses no P-glycoprotein, KB-8-5 expresses moderate levels of the protein, and KB-V1 expresses very high levels.

tubulin heterodimer = test: Competitive binding test, [3H]vinblastine; design: species or system bovine; conditions: [3H]vinblastine 100 nM
Experimental: Medium is RPMI-1640 with L-glutamine, supplemented with 10% heat-inactivated fetal calf serum, 100 units/ml penicillin, and 100 μg/ml streptomycin (Gibco, Grand Island, N.Y.). Microtubule-associated protein (MAP)-rich tubulin, containing about 70% tubulin and 30% MAPs (#ML113), and highly purified tubulin (>99% pure, #TL238), both from bovine brain, are obtained from Cytoskeleton, Inc., Denver, Colo. PEM buffer (80 mM piperazine-N,N′-bis[2-ethanesulfonic acid], pH 6.9, 1 mM ethylene glycol-bis(β-aminoethyl ether)-N,N,N′,N′-tetraacetic acid, 1 mM magnesium chloride) and guanosine 5′-triphosphate (GTP) are also obtained from Cytoskeleton. [3H]paclitaxel, specific activity 14.7 Ci/mmol, is purchased from Moravek Biochemicals (Brea, Calif.). [^3H]vinblastine, specific activity 9.60 Ci/mmol and MicroSpin G-50 columns are obtained from Amersham Biosciences (Piscataway, N.J.). […] Other reagents are obtained from Sigma (St. Louis, Mo.).
The binding of examples of this invention to highly purified tubulin is studied by competitive inhibition methods. […] To study possible competition at the taxane site, on the other hand, polymerized tubulin (microtubules) is used because paclitaxel binds preferentially to microtubules.
Highly purified tubulin is dissolved in PEM buffer without GTP and used at a final concentration of 1.0 to 1.3 mg/ml (10 to 13 μM). […] These solutions are incubated at 24° for 1 hr and then applied to MicroSpin G-50 columns which are centrifuged for 2 min at 3000 rpm in an Eppendorf 5415C microfuge. An aliquot of each column effluent (containing tubulin and bound radioligand) is mixed with scintillation fluid and counted in a liquid scintillation spectrometer. […] The ability of the competitor to inhibit the binding of the radioligand is expressed as a percentage of control binding in the absence of any competitor.

Row | [3H]Vinblastine binding, percent of control without competitor, Mean (tubulin heterodimer) | Structure (SMILES) | IC50 (COLO 205 cells; Homo sapiens, COLO 205, 72 h) | IC50 (KB cells; KB cells, MTS) | IC50 (COLO 205 cells) | IC50 (KB cells; KB)
1 | 19% | C[C@H](Nc1c(-c2c(F)cc(OCCCO)cc2F)c(Cl)nc2ncnn12)C(F)(F)F [Example 20, 3-[4-(5-Chloro-7-{[(1S)-2,2,2-trifluoro-1-methylethyl]amino}[1,2,4]triazolo[1,5-a]pyrimidin-6-yl)-3,5-difluorophenoxy]propan-1-ol] | 67 nM | 57 nM | – | –
2 | 14% | C[C@H](Nc1c(-c2c(F)cc(OCCCN(C)C)cc2F)c(Br)nc2ncnn12)C(F)(F)F [Example 25, 5-Bromo-6-{4-[3-(dimethylamino)propoxy]-2,6-difluorophenyl}-N-[(1S)-2,2,2-trifluoro-1-methylethyl][1,2,4]triazolo[1,5-a]pyrimidin-7-amine] | 96 nM | 59 nM | – | –
3 | 14% | OCCCOc1cc(F)c(-c2c(Cl)nc3ncnn3c2C2CCCCCC2)c(F)c1 [Example 30, 3-[4-(5-Chloro-7-cycloheptyl[1,2,4]triazolo[1,5-a]pyrimidin-6-yl)-3,5-difluorophenoxy]propan-1-ol] | 30 nM | 72 nM | – | –
4 | 15% | CNCCCOc1cc(F)c(-c2c(Cl)nc3ncnn3c2C2CCCCCC2)c(F)c1.O=C(O)C(F)(F)F [Example 32, 3-[4-(5-Chloro-7-cycloheptyl[1,2,4]triazolo[1,5-a]pyrimidin-6-yl)-3,5-difluorophenoxy]-N-methylpropan-1-amine trifluoroacetic acid salt] | 6.6 nM | 11 nM | – | –
5 | 92% | CC(=O)O[C@H]1C(=O)[C@@]2(C)[C@H]([C@H](OC(=O)c3ccccc3)[C@]3(O)C[C@H](OC(=O)[C@H](O)[C@@H](NC(=O)c4ccccc4)c4ccccc4)C(C)=C1C3(C)C)[C@]1(OC(C)=O)CO[C@@H]1C[C@@H]2O [Paclitaxel, reference compound] | 3.3 nM | 2.9 nM | – | –
6 | 5% | CC[C@]1(O)C[C@H]2CN(CCc3c([nH]c4ccccc34)[C@@](C(=O)OC)(c3cc4c(cc3OC)N(C=O)[C@H]3[C@@](O)(C(=O)OC)[C@H](OC(C)=O)[C@]5(CC)C=CCN6CC[C@]43[C@@H]65)C2)C1 [Vincristine, reference compound] | 2.6 nM | 6.4 nM | – | –

Row | Structure (SMILES) | [3H]Vinblastine binding, percent of control without competitor, Mean (tubulin heterodimer) | IC50 (COLO 205 cells; Homo sapiens, COLO 205, 72 h) | IC50 (KB cells; KB cells, MTS) | IC50 (COLO 205 cells) | IC50 (KB cells; KB)
7 | C[C@H](Nc1c(-c2c(F)cc(OCCCN(C)C)cc2F)c(Cl)nc2ncnn12)C(F)(F)F.Cl [Example 1a, 5-chloro-6-{4-[3-(dimethylamino)propoxy]-2,6-difluorophenyl}-N-[(1S)-2,2,2-trifluoro-1-methylethyl][1,2,4]triazolo[1,5-a]pyrimidin-7-amine hydrogen chloride Salt] | 12% | 56 nM | 28 nM | – | –
8 | CNCCCOc1cc(F)c(-c2c(Cl)nc3ncnn3c2N[C@@H](C)C(F)(F)F)c(F)c1.Cl [Example 2a, 5-Chloro-6-{2,6-difluoro-4-[3-(methylamino)propoxy]phenyl}-N-[(1S)-2,2,2-trifluoro-1-methylethyl][1,2,4]triazolo[1,5-a]pyrimidin-7-amine hydrogen chloride] | 11% | – | – | 31 nM | 24 nM
9 | CNCCCOc1cc(F)c(-c2c(Cl)nc3ncnn3c2NCC(F)(F)F)c(F)c1.Cl [Example 3a, 5-Chloro-6-{2,6-difluoro-4-[3-(methylamino)propoxy]phenyl}-N-(2,2,2-trifluoroethyl)[1,2,4]triazolo[1,5-a]pyrimidin-7-amine hydrogen chloride Salt] | 11% | – | 18 nM | 29 nM | –
10 | CN(C)CCCOc1cc(F)c(-c2c(Cl)nc3ncnn3c2NCC(F)(F)F)c(F)c1.Cl [Example 4a, 5-Chloro-6-{4-[3-(dimethylamino)propoxy]-2,6-difluorophenyl}-N-(2,2,2-trifluoroethyl)[1,2,4]triazolo[1,5-a]pyrimidin-7-amine Hydrogen chloride Salt] | 15% | 53 nM | 24 nM | – | –
